Reference: ChEMBL document CHEMBL1146198, “In vitro studies with DQ-113 and comparison fluoroquinolones to determine propensities to select resistance in gram-positive cocci” (2007)
Converted amounts (≈) assume the structure as drawn.

Key:
Assay type in all cases: functional
[1] = tested on: Streptococcus pneumoniae; assay: Effect on 2 ug/ml moxifloxacin-selected penicillin-resistant Streptococcus pneumoniae 218 mutant after five passages assessed as susceptibility by agar dilution method
[2] = tested on: Staphylococcus aureus; assay: Susceptibility of methicillin-sensitive/resistant Staphylococcus aureus single-step mutant by agar dilution method
[3] = tested on: Streptococcus pneumoniae; assay: Susceptibility of penicillin-resistant Streptococcus pneumoniae 335 by agar dilution method
[4] = tested on: Streptococcus pneumoniae; assay: Effect on 0.06 ug/ml DQ113-selected penicillin-resistant Streptococcus pneumoniae 335 mutant after five passages assessed as susceptibility by agar dilution method
[5] = tested on: Streptococcus pneumoniae; assay: Effect on 0.5 ug/ml […]-selected penicillin-resistant Streptococcus pneumoniae 335 mutant after five passages assessed as susceptibility by agar dilution method
[6] = tested on: Streptococcus pneumoniae; assay: Effect on 1 ug/ml moxifloxacin-selected penicillin-resistant Streptococcus pneumoniae 335 mutant after five passages assessed as susceptibility by agar dilution method
[7] = tested on: Streptococcus pneumoniae; assay: Effect on 0.06 ug/ml DQ113-selected penicillin-resistant Streptococcus pneumoniae 334 mutant after five passages assessed as susceptibility by agar dilution method
[8] = tested on: Streptococcus pneumoniae; assay: Effect on 8 ug/ml ciprofloxacin-selected penicillin-resistant Streptococcus pneumoniae 216 mutant after five passages assessed as susceptibility by agar dilution method
[9] = tested on: Streptococcus pneumoniae; assay: Susceptibility of penicillin-resistant Streptococcus pneumoniae 218 by agar dilution method
[10] = tested on: Streptococcus pneumoniae; assay: Effect on 0.06 ug/ml DQ113-selected penicillin-resistant Streptococcus pneumoniae 218 mutant after five passages assessed as susceptibility by agar dilution method
[11] = tested on: Streptococcus pneumoniae; assay: Effect on 0.5 ug/ml sitafloxacin-selected penicillin-resistant Streptococcus pneumoniae 218 mutant after five passages assessed as susceptibility by agar dilution method
[12] = tested on: Streptococcus pneumoniae; assay: Effect on 16 ug/ml levofloxacin-selected penicillin-resistant Streptococcus pneumoniae 218 mutant after five passages assessed as susceptibility by agar dilution method
[13] = tested on: Streptococcus pneumoniae; assay: Effect on 16 ug/ml ciprofloxacin-selected penicillin-resistant Streptococcus pneumoniae 218 mutant after five passages assessed as susceptibility by agar dilution method
[14] = tested on: Enterococcus; assay: Susceptibility of vancomycin-resistant Enterococcus species single-step mutant by agar dilution method
[15] = tested on: Enterococcus; assay: Susceptibility of drug-selected vancomycin-resistant Enterococcus species mutant by agar dilution method
[16] = tested on: Streptococcus pneumoniae; assay: Effect on 16 ug/ml levofloxacin-selected penicillin-resistant Streptococcus pneumoniae 335 mutant after five passages assessed as susceptibility by agar dilution method
[17] = tested on: Streptococcus pneumoniae; assay: Effect on 16 ug/ml ciprofloxacin-selected penicillin-resistant Streptococcus pneumoniae 335 mutant after five passages assessed as susceptibility by agar dilution method
[18] = tested on: Streptococcus pneumoniae; assay: Susceptibility of penicillin-resistant Streptococcus pneumoniae 334 by agar dilution method
[19] = tested on: Streptococcus pneumoniae; assay: Effect on 0.5 ug/ml sitafloxacin-selected penicillin-resistant Streptococcus pneumoniae 334 mutant after five passages assessed as susceptibility by agar dilution method
[20] = tested on: Streptococcus pneumoniae; assay: Effect on 1 ug/ml moxifloxacin-selected penicillin-resistant Streptococcus pneumoniae 334 mutant after five passages assessed as susceptibility by agar dilution method
[21] = tested on: Streptococcus pneumoniae; assay: Effect on 4 ug/ml levofloxacin-selected penicillin-resistant Streptococcus pneumoniae 334 mutant after five passages assessed as susceptibility by agar dilution method
[22] = tested on: Streptococcus pneumoniae; assay: Effect on 32 ug/ml ciprofloxacin-selected penicillin-resistant Streptococcus pneumoniae 334 mutant after five passages assessed as susceptibility by agar dilution method
[23] = tested on: Streptococcus pneumoniae; assay: Susceptibility of penicillin-resistant Streptococcus pneumoniae 216 by agar dilution method
[24] = tested on: Streptococcus pneumoniae; assay: Effect on 0.06 ug/ml DQ113-selected penicillin-resistant Streptococcus pneumoniae 216 mutant after five passages assessed as susceptibility by agar dilution method
[25] = tested on: Streptococcus pneumoniae; assay: (§1) Effect on 0.5 ug/ml sitafloxacin-selected penicillin-resistant Streptococcus pneumoniae 216 mutant after five passages assessed as susceptibility by agar dilution method
[26] = tested on: Streptococcus pneumoniae; assay: Effect on 2 ug/ml moxifloxacin-selected penicillin-resistant Streptococcus pneumoniae 216 mutant after five passages assessed as susceptibility by agar dilution method
[27] = tested on: Streptococcus pneumoniae; assay: (§2) Effect on 4 ug/ml levofloxacin-selected penicillin-resistant Streptococcus pneumoniae 216 mutant after five passages assessed as susceptibility by agar dilution method
[28] = tested on: Streptococcus pneumoniae; assay: Effect on 32 ug/ml ciprofloxacin-selected penicillin-resistant Streptococcus pneumoniae 216 mutant after five passages assessed as susceptibility by agar dilution method
[29] = tested on: Streptococcus pneumoniae; assay: Susceptibility of penicillin-resistant Streptococcus pneumoniae 217 by agar dilution method
[30] = tested on: Streptococcus pneumoniae; assay: Effect on 0.03 ug/ml DQ113-selected penicillin-resistant Streptococcus pneumoniae 216 mutant after five passages assessed as susceptibility by agar dilution method
[31] = tested on: Streptococcus pneumoniae; assay: as §1; remark: listed apart in the source
[32] = tested on: Streptococcus pneumoniae; assay: Effect on 0.5 ug/ml moxifloxacin-selected penicillin-resistant Streptococcus pneumoniae 216 mutant after five passages assessed as susceptibility by agar dilution method
[33] = tested on: Streptococcus pneumoniae; assay: as §2; remark: listed apart in the source

SMILES	MIC [1] [µg/mL]	MIC [2] [µg/mL]	MIC [3] [µg/mL]	MIC [4] [µg/mL]	MIC [5] [µg/mL]	MIC [6] [µg/mL]	MIC [7] [µg/mL]	MIC [8] [µg/mL]	MIC [9] [µg/mL]	MIC [10] [µg/mL]	MIC [11] [µg/mL]	MIC [12] [µg/mL]	MIC [13] [µg/mL]	MIC [14] [µg/mL]	MIC [16] [µg/mL]	MIC [17] [µg/mL]	MIC [18] [µg/mL]	MIC [19] [µg/mL]	MIC [20] [µg/mL]	MIC [26] [µg/mL]	also measured
N[C@@H]1CN(c2c(F)cc3c(=O)c(C(=O)O)cn(C4C[C@@H]4F)c3c2Cl)CC12CC2 (single isomer, unassigned) [SITAFLOXACIN ANHYDROUS]	1	0.25 (≈ 0.61 µM)	0.12 (≈ 0.293 µM)	0.5 (≈ 1.22 µM)	2	0.5	0.5 (≈ 1.22 µM)	0.5	0.12 (≈ 0.293 µM)	1 (≈ 2.44 µM)	1	0.5	2	4 (≈ 9.76 µM)	4	0.5	0.06 (≈ 0.146 µM)	0.5	0.12	4	MIC ([15]; read-out: MIC): 8 µg/mL (≈ 19.5 µM); MIC [21]: 0.5 µg/mL; MIC [22]: 0.5 µg/mL; MIC [23]: 0.06 µg/mL (≈ 0.146 µM); MIC [24]: 0.5 µg/mL (≈ 1.22 µM); MIC [25]: 2 µg/mL; MIC [27]: 0.5 µg/mL; MIC [28]: 1 µg/mL; MIC [29]: 0.12 µg/mL (≈ 0.293 µM); MIC [30]: 0.25 µg/mL (≈ 0.61 µM); MIC [31]: 1 µg/mL; MIC [32]: 0.5 µg/mL; MIC [33]: 0.12 µg/mL
O=C(O)c1cn(C2CC2)c2cc(N3CCNCC3)c(F)cc2c1=O [CIPROFLOXACIN]	128		1 (≈ 3.02 µM)	4 (≈ 12.1 µM)	16	4	8 (≈ 24.1 µM)	32	1 (≈ 3.02 µM)	8 (≈ 24.1 µM)	16	8	128	16 (≈ 48.3 µM)	128	16	1 (≈ 3.02 µM)	64	8	128	MIC [21]: 32 µg/mL; MIC [22]: 32 µg/mL; MIC [24]: 16 µg/mL (≈ 48.3 µM); MIC [25]: 32 µg/mL; MIC [27]: 16 µg/mL; MIC [28]: 32 µg/mL; MIC [29]: 1 µg/mL (≈ 3.02 µM); MIC [30]: 4 µg/mL (≈ 12.1 µM); MIC [31]: 32 µg/mL; MIC [32]: 4 µg/mL; MIC [33]: 4 µg/mL
Cc1c(N2C[C@@H](F)[C@@H](C3(N)CC3)C2)c(F)c(N)c2c(=O)c(C(=O)O)cn([C@@H]3C[C@@H]3F)c12 [DQ-113]	0.03	0.03 (≈ 0.0687 µM)	0.002 (≈ 0.00458 µM)	0.015 (≈ 0.0344 µM)	0.03	0.03	0.06 (≈ 0.137 µM)	0.015	0.004 (≈ 0.00917 µM)	0.03 (≈ 0.0687 µM)	0.015	0.015	0.06	2 (≈ 4.58 µM)	0.12	0.007	0.004 (≈ 0.00917 µM)	0.06	0.015	0.12	MIC ([15]; read-out: MIC): 8 µg/mL (≈ 18.3 µM); MIC [21]: 0.03 µg/mL; MIC [22]: 0.03 µg/mL; MIC [23]: 0.001 µg/mL (≈ 0.00229 µM); MIC [24]: 0.06 µg/mL (≈ 0.137 µM); MIC [25]: 0.03 µg/mL; MIC [27]: 0.007 µg/mL; MIC [28]: 0.015 µg/mL; MIC [29]: 0.004 µg/mL (≈ 0.00917 µM); MIC [30]: 0.007 µg/mL (≈ 0.016 µM); MIC [31]: 0.03 µg/mL; MIC [32]: 0.015 µg/mL; MIC [33]: 0.002 µg/mL
C[C@H]1COc2c(N3CCN(C)CC3)c(F)cc3c(=O)c(C(=O)O)cn1c23.C[C@H]1COc2c(N3CCN(C)CC3)c(F)cc3c(=O)c(C(=O)O)cn1c23.O [LEVOFLOXACIN]		2												16	64					64	MIC ([15]; read-out: MIC): 256 µg/mL
COc1c(N2C[C@@H]3CCCN[C@@H]3C2)c(F)cc2c(=O)c(C(=O)O)cn(C3CC3)c12 [MOXIFLOXACIN]	4	0.5 (≈ 1.25 µM)	0.12 (≈ 0.299 µM)	1 (≈ 2.49 µM)	1	2	2 (≈ 4.98 µM)	2	0.12 (≈ 0.299 µM)	1 (≈ 2.49 µM)	1	1	4	8 (≈ 19.9 µM)	8	0.5	0.12 (≈ 0.299 µM)	4	0.5	8	MIC [15]: 64 µg/mL (≈ 159 µM); MIC [21]: 2 µg/mL; MIC [22]: 1 µg/mL; MIC [23]: 0.06 µg/mL (≈ 0.149 µM); MIC [24]: 2 µg/mL (≈ 4.98 µM); MIC [25]: 2 µg/mL; MIC [27]: 0.25 µg/mL; MIC [28]: 0.5 µg/mL; MIC [29]: 0.25 µg/mL (≈ 0.623 µM); MIC [30]: 0.25 µg/mL (≈ 0.623 µM); MIC [31]: 2 µg/mL; MIC [32]: 1 µg/mL; MIC [33]: 0.25 µg/mL
